Experimental data: PMC5762315, “Inhibition of polo-like kinase 4 (PLK4): a new therapeutic option for rhabdoid tumors and pediatric medulloblastoma” (Oncotarget, 2017)
Values joined by “and” are separate entries in the source; they are usually repeats but may differ in a detail not shown here. Equal entries are not always repeated.

Tests used:
various kinases [1] = biological target: various kinases (Homo sapiens, UniProt P42336, E542K); assay: Adapta Universal Kinase Assay, panel of 486 biochemical kinase assays; conditions: PIK3CA E542K/PIK3R1 (p110 alpha E542K/p85 alpha)
various kinases [2] = biological target: various kinases (Homo sapiens, UniProt O15111); assay: as above; conditions: CHUK (IKK alpha)
[3] = test system: G401, BT-12, BT-16, DAOY and D283 cell lines; assay: Immunofluorescence for gamma-tubulin (centriole number), other RT and MB lines; type: cell-based, human
Description: The cells were then blocked in blocking buffer (5% BSA (Jackson Immuno Research Laboratories Inc., USA) in PBST) for 1 hour at RT. The primary antibody ([…] 1:500, Sigma, USA) diluted in 1% BSA in PBST was then added and incubated at 4°C overnight. Then, the cells were washed with 1X PBS thrice. Secondary antibody (Anti-Rabbit IgG (H+L) F (ab’) 2, 1:500, Sigma, USA) diluted in 1% BSA in PBST was added and incubated at RT for 2 hours. Three time washes with 1X PBS were performed. Then, 1mL of DAPI (Thermo Fisher Scientific, USA) in PBS (0.5μl of DAPI in 10 ml PBS) was added to the cells and incubated for 10 min at RT. Finally, 3 time washes with 1X PBS were performed and slides were mounted using Mounting Medium (Thermo Fisher Scientific, USA).

[4] = test system: non-neoplastic human fibroblast cell line HFF-SCC058; assay: Flow cytometry cell cycle analysis (polyploidy), fibroblasts; type: cell-based; conditions: 100nM
Description: Cell cycle evaluation was performed by staining the cells with PI (Thermo Fisher Scientific, USA) according to manufacturer’s instructions. […] Data was analyzed using Modfit LT from Verity Software House. Experiments were performed in triplicates.

RT and MB cell lines = assay: Clonogenic recovery assay; type: cell-based, human; conditions: 6 days 100nM, then 12 days 0.1% DMSO
Description: For each cell line, 200 cells were seeded into 6-well tissue culture plates. […] On the 7th day, cell were washed with 1X PBS twice and then incubated with 0.1% DMSO for an additional 12 days. […] The number of colonies was counted. All experiments were performed in triplicates.

D283 cells = assay: Colony formation assay, D283; type: cell-based, human; conditions: 50nM
Description: (§1) For proliferation assay DAOY was plated with 5 x 10^4 cells per well and D283 was plated with 5 x 10^5 cells per well.

DAOY cells [5] = assay: Viability assay (Presto Blue), DAOY; type: cell-based; conditions: Homo sapiens, dose-response 1nM to 10μM
DAOY cells [6] = assay: Colony formation assay, DAOY; type: cell-based, human; conditions: 50nM
Description: as §1

TEK [7] = biological target: TEK (Homo sapiens, UniProt Q02763, Y1108F); assay: Kinase activity screening (SelectScreen), TEK; type: biochemical
TEK [8] = biological target: TEK (Homo sapiens, UniProt Q02763, Y897S); assay: Kinase activity screening (SelectScreen), TEK; type: biochemical; conditions: kinase TEK (TIE2) Y897S; ZLYTE
TEK [9] = assay: Kinase activity screening (SelectScreen), TEK; type: biochemical; conditions: kinase TEK (Tie2); ZLYTE
TEK [10] = biological target: TEK (Homo sapiens, UniProt Q02763, R849W); assay: Kinase activity screening (SelectScreen), TEK; type: biochemical; conditions: kinase TEK (TIE2) R849W; LanthaScreen Binding
G401 RTK cells = assay: Confluency assay (IncuCyte ZOOM), G401; type: cell-based, human; conditions: increasing concentrations starting at 31.25nM, 48 hours, p-value=0.004
Description: For further evaluation of the effect of the PLK4 inhibitor over tumor cell proliferation, confluency was measured over a 48 hour period. MON, BT-12, G401 and DAOY cells were plated in 96-well plates with a density of 6 x 10^4 per well. […] Confluency was monitored for 48 hours by taking phase contrast images every 2 hours and measured using an IncuCyte ZOOM system (Essen BioScience, USA). Experiments were performed in triplicates.

various kinases [11] = biological target: various kinases (Homo sapiens, UniProt Q16539); assay: biochemical; type: biochemical
various kinases [12] = biological target: various kinases (Homo sapiens, UniProt Q9BUB5); assay: biochemical; type: biochemical; conditions: MKNK1 (MNK1)
various kinases [13] = biological target: various kinases (Homo sapiens, UniProt P52333); assay: biochemical; type: biochemical; conditions: JAK3
various kinases [14] = biological target: various kinases (Homo sapiens, UniProt Q13554); assay: biochemical; type: biochemical; conditions: CAMK2B (CaMKII beta)
various kinases [15] = biological target: various kinases (Homo sapiens, UniProt P21802); assay: biochemical; type: biochemical; conditions: FGFR2
various kinases [16] = biological target: various kinases (Homo sapiens, UniProt Q9NWZ3); assay: biochemical; type: biochemical; conditions: IRAK4
various kinases [17] = biological target: various kinases (Homo sapiens, UniProt P00533, T790M); assay: biochemical; type: biochemical; conditions: EGFR (ErbB1) T790M
various kinases [18] = biological target: various kinases (Homo sapiens, UniProt P29322); assay: biochemical; type: biochemical; conditions: EPHA8
various kinases [19] = biological target: various kinases (Homo sapiens, UniProt Q9P289); assay: biochemical; type: biochemical; conditions: MST4
BT-12 cells = assay: Viability assay (Presto Blue), BT-12; type: cell-based; conditions: Homo sapiens, dose-response 1nM to 10μM
Description: Except DAOY and D283, all cell lines were plated with 2 x 10^3 cells per well 96-well and the absorbance was measured after 48 and 72 hours at drug concentrations of 5, 10, 50, 100, 200, 500nM, 1μM and 5μM.

[20] = test system: MON, G401, BT-12, BT-16, DAOY and D283 cell lines; assay: Senescence beta-galactosidase assay; type: cell-based, human; conditions: all cell lines (MON, G401, BT-12, BT-16, DAOY, D283); 100nM, 48 hours
Description: For each cell line, cells were seeded in 6-well plates in triplicates with 100,000 cells per well. Treatment medium was added the next day and incubated for 48 or 72 hrs. After incubation, cells were washed twice with 1X PBS and 1mL of the Fixation Buffer from the kit was added to each well of the plate and incubated at RT for 5 min. Cells were washed with 1X PBS and 1mL of staining solution from the kit was added to each well and incubated at 37°C without CO2 overnight. The next day, the cells were washed with 1X PBS and the numbers of blue stained cells (which indicate senescent cells) and unstained cells were counted in image J (www.imagej.nih.gov). The percentage of senescent cells was calculated.

Sequence of TEK (Homo sapiens, UniProt Q02763, Y897S) (Q02763 771-1124 Y897S): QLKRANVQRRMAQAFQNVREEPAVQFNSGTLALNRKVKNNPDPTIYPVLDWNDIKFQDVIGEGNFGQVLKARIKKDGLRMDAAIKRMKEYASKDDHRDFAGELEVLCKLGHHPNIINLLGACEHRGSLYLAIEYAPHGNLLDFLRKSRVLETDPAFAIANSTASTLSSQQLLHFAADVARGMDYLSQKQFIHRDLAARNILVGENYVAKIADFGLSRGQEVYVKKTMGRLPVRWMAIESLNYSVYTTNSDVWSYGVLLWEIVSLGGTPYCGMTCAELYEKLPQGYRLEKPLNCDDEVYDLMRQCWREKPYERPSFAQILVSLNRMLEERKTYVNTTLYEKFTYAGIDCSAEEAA
Sequence of various kinases (Homo sapiens, UniProt Q16539) (Q16539 whole entry): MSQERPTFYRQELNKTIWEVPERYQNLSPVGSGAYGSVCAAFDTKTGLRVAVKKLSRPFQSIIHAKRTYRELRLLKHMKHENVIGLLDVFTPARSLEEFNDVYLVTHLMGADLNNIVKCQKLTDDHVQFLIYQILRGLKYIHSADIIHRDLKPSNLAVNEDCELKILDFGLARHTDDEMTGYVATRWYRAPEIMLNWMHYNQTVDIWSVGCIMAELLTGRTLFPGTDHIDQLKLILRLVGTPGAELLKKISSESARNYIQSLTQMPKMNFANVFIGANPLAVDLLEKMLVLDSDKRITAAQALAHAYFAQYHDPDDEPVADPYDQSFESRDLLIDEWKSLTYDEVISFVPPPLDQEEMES
Sequence of various kinases (Homo sapiens, UniProt Q9P289) (Q9P289 whole entry): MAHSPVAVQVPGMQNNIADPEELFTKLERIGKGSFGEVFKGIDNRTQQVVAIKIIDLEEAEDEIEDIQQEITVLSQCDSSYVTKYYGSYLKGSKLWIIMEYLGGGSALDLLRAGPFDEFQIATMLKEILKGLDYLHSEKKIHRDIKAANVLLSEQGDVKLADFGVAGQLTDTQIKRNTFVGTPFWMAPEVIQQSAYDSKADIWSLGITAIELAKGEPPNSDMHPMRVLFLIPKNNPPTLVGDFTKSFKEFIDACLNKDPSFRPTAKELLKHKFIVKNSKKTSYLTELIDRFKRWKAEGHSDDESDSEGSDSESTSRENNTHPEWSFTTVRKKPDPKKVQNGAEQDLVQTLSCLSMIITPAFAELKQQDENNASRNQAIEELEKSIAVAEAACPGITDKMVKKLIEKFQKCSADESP
Sequence of various kinases (Homo sapiens, UniProt Q9BUB5) (Q9BUB5 whole entry): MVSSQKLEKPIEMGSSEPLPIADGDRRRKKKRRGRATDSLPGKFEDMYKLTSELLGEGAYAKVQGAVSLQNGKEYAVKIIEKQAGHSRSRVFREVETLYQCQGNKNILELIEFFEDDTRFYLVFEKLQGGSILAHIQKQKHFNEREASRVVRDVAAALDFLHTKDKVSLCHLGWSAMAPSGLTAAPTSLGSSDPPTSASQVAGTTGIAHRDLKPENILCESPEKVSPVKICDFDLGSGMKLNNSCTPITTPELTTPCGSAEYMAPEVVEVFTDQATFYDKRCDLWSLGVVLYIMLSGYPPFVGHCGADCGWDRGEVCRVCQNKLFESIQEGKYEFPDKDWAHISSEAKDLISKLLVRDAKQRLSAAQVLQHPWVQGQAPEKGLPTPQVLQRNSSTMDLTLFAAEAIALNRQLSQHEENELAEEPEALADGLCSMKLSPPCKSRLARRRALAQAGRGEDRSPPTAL
Sequence of various kinases (Homo sapiens, UniProt Q9NWZ3) (Q9NWZ3 whole entry): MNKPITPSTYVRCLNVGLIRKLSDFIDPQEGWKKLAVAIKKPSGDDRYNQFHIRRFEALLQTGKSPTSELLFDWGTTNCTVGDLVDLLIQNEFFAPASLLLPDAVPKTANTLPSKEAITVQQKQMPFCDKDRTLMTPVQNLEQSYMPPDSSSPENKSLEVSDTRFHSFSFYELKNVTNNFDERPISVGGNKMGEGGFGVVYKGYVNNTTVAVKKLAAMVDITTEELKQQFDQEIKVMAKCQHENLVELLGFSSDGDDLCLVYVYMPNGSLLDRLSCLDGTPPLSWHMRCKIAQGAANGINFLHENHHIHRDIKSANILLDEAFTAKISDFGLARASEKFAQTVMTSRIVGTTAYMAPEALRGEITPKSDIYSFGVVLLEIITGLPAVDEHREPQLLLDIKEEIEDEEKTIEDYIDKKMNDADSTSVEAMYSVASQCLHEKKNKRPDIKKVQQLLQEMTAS
Sequence of various kinases (Homo sapiens, UniProt Q13554) (Q13554 whole entry): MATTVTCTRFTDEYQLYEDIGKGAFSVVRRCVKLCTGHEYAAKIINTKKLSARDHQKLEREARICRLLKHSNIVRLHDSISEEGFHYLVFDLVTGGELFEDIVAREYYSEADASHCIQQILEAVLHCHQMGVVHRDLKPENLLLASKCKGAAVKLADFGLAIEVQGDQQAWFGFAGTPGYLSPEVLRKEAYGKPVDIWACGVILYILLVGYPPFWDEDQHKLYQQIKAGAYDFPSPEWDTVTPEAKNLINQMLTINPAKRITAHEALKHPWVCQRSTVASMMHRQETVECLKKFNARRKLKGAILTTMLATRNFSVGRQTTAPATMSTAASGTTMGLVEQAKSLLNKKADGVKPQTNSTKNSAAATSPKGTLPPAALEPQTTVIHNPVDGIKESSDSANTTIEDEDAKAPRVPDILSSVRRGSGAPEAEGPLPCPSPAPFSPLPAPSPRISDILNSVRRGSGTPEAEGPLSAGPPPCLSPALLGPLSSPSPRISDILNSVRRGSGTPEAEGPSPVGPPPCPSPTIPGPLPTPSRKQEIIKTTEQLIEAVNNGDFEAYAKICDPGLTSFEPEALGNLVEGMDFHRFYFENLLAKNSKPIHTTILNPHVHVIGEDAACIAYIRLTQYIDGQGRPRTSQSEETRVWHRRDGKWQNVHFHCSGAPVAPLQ
Sequence of various kinases (Homo sapiens, UniProt P42336, E542K) (P42336 whole entry E542K): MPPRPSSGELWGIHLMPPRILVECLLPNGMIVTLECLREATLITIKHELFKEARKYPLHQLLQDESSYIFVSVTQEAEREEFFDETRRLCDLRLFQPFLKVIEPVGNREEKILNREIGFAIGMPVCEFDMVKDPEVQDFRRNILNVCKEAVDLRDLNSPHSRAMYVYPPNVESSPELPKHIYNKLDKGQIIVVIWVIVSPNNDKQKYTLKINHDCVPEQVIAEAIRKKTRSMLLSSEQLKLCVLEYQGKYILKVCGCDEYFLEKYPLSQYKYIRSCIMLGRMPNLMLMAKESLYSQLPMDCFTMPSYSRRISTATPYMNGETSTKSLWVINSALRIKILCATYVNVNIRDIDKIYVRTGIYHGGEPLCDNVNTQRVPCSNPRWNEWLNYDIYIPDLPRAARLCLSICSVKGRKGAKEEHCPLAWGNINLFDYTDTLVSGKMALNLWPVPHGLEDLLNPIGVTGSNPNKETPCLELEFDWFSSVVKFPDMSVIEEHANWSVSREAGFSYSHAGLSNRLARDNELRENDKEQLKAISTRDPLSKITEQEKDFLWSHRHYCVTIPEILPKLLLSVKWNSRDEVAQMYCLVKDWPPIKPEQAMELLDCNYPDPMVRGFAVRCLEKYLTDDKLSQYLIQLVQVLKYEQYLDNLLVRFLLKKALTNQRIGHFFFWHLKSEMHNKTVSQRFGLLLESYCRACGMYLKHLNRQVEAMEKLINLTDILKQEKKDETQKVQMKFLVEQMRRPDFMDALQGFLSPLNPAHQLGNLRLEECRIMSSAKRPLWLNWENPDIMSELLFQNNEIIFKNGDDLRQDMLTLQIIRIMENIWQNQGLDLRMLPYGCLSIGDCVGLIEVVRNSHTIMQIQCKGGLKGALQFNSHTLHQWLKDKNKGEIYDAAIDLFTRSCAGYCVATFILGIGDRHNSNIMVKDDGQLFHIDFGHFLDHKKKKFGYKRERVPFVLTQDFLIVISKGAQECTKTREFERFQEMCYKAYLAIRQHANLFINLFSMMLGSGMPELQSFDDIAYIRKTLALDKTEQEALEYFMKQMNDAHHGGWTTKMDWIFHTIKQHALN
Sequence of various kinases (Homo sapiens, UniProt P21802) (P21802 22-821): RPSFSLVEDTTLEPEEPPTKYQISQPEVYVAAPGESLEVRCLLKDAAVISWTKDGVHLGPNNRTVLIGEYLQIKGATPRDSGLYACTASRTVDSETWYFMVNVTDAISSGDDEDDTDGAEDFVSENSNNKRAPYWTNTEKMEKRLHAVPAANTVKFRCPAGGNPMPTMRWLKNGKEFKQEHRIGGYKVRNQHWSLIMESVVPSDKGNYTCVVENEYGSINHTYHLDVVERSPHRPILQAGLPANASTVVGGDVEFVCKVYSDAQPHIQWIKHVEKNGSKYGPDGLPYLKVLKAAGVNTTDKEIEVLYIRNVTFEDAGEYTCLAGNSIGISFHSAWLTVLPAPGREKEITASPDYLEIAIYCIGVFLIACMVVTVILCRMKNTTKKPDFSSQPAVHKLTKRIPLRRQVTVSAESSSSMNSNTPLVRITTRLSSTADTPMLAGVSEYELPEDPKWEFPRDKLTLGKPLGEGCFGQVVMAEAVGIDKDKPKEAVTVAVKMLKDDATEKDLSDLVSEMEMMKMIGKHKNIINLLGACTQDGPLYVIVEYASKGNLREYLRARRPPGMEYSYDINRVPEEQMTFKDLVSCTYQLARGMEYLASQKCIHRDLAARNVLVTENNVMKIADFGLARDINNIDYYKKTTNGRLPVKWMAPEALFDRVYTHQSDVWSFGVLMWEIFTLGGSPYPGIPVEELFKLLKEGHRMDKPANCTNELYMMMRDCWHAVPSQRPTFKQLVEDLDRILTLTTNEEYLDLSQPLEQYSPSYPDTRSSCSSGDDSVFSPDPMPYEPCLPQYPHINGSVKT
Sequence of TEK (Homo sapiens, UniProt Q02763, Y1108F) (Q02763 771-1124 Y1108F): as the sequence (Q02763 771-1124 Y897S) above, with S127Y, Y338F counted along it
Sequence of TEK (Homo sapiens, UniProt Q02763, R849W) (Q02763 771-1124 R849W): as the sequence (Q02763 771-1124 Y897S) above, with R79W, S127Y counted along it

COc1ccc2c(c1)[C@]1(C[C@H]1c1ccc3c(/C=C/c4ccc(CN5C[C@@H](C)O[C@@H](C)C5)cc4)n[nH]c3c1)C(=O)N2 [CFI-400945]
% Inhibition (various kinases [1]): 6% and 9% | % Inhibition (various kinases [2]): -11% | centrioles' number ([3]; 100nM): increase | centrioles' number ([3]; 500nM): significant decrease | polyploidy (cell cycle analysis) [4]: No effect | clonogenic recovery (RT and MB cell lines): none of the cell lines recovered their ability to generate colonies | colony formation (D283 cells): Complete inhibition | IC50 (DAOY cells [5]): 94 nM | colony formation (DAOY cells [6]): Complete inhibition | IC50 (TEK [7]): 109 nM | % Inhibition Average (TEK [8]): 31% | % Inhibition Duplicate #1 (TEK [8]): 29% | % Inhibition Duplicate #2 (TEK [8]): 32% | % Inhibition Duplicate #2 (TEK [9]): 55% | % Inhibition Duplicate #2 (TEK [10]): 87% | FC, delay in reaching confluency (G401 RTK cells): 1.78 | % Inhibition (various kinases [11]; MAPK14 (p38 alpha)): 8% and 0% | % Inhibition (various kinases [11]; MAPK14 (p38 alpha) Direct): 11% | % Inhibition (various kinases [12]): 6% and 1% | % Inhibition (various kinases [13]): 23% | % Inhibition (various kinases [14]): 13% and 14% | % Inhibition (various kinases [15]): 55% and 58% | % Inhibition (various kinases [16]): 0% and -3% | % Inhibition (various kinases [17]): 3% | % Inhibition (various kinases [18]): -5% and 0% | % Inhibition (various kinases [19]): 14% and 10% | IC50 (BT-12 cells): 3730 nM | senescent cells (beta galactosidase) [20]: significant increase
